Test [1] in a line: Chickens given allopurinol to lower uric acid; glycosylation damage. Type of test: in vivo. The method, then:
The following example was conducted to establish the role of uric acid in protecting against the sequelia associated with diabetic damage. It is established that this sequelia occurs in diabetic patients due to increases in sugar levels that result from either the insufficient production of insulin or the insufficient breakdown of sugar by the insulin, depending of the type of diabetes. Sugar, in excess conditions, can become an oxidizer, which leads to oxidative damage in a patient. Glycosylated hemoglobin (HBA1C) is used to measure the amount of oxidative damage that results from excess sugar in a patient; increased (HBA1C) is the definition used for diabetes. […] Chickens are known to have excessively high sugar levels, and should be essentially in a diabetic state. […] To confirm the causal relationship between high levels of uric acid and prevention of glycosylation damage, chickens were given allopurinol. This compound specifically […].

The nature of test [2]: Oral uric acid precursor in a person with Alzheimer's. As to conditions: one Alzheimer's patient; 500-1,000 mg orally per day; upon raising uric acid levels. Type of test: in vivo, human.

For `Oc1ncnc2[nH]ncc12` [allopurinol], the “signs of diabetic complications” value in test [1] (after uric acid reduced to below normal levels) is “exhibited signs of diabetic complications”. The uric acid levels result in test [1] (enough administered to effect significant conversion of uric acid) is “lowering of uric acid levels”. Further, the “levels of the chicken equivalent of A1C (glycosylated hemoglobin)” value in test [1] (once uric acid reduced to below normal levels) is given as “increased dramatically”.
Turning to `O=c1[nH]cnc2nc[nH]c12` [hypoxanthine], in test [2], the “Alzheimer symptoms (not recognizing bathroom, incontinence, general cognitive decline)” value was “reduced”.
With `OC[C@H]1O[C@@H](n2cnc3c(O)ncnc32)[C@H](O)[C@@H]1O` [inosine], the “Alzheimer symptoms (not recognizing bathroom, incontinence, general cognitive decline)” value in test [2] is “reduced”.

For the origin of these results see patent publication US20120041006A1, “Compositions for Raising Uric Acid Levels and Methods of Using the Same” (priority 1998, published 2012).
